This note sets out measurements from US20230047027A1, “COMPOSITIONS AND METHODS USING CANNABINOID COMPOUNDS FOR REGULATING GASTRIC ACID SECRETION TO TREAT GASTROESOPHAGEAL REFLUX DISEASE AND RELATED CONDITIONS” (Demetrix, Inc., priority 2021, published 2023).

For assay [1], the target named is T1, H2 receptor (Homo sapiens, UniProt P25021). The assay is described as follows: GPCR reactivity screen (PathHunter β-Arrestin GPCR assay), antagonist mode. It is filed as cell-based. The note with it: for H2 Receptor Antagonist Activity (percent inhibition): single assay run, pre-incubation with cannabinoid, then agonist challenge at EC80, test concentration not given, about 60% or higher = strong activity; for H2 antagonist activity in the GPCR reactivity screen (in words): summary of Table 1; for effect on sensitivity to histamine (in words): Table 1, negative inhibition. On the procedure:
To evaluate the H2 antagonist activity of the cannabinoid compounds, a GPCR reactivity assay was performed. The evaluated cannabinoid compounds were: CBN, THCV, CBDVA, CBG, CBL, CBC, CBDV, CBDA, CBD, CBGA, (+)-CBD, CBG-C4, CBD-C1, CBD-C2, CBGV, CBGA-C4, CBGVA, CBCA, and CBLA. Tiotidine was used as the control.
(§1) A single assay was run. In each run, PathHunter® cell lines were removed from a freezer stock and seeded at a volume of 20 μL into white walled, 384-well microplates and incubated at 37° C. Each cell was pre-incubated with the cannabinoid compound followed by an agonist challenge at the EC80 concentration. […] were then diluted to generate a 5x sample in assay buffer. 5 μL of the 5x sample was then added to cells and incubated at 37° C. for 30 minutes. Finally, 5 μL of 6x EC80 agonist in assay buffer were added to the cells and incubated at 37° C. for 90 minutes or 180 minutes. The assay signal was generated through addition of 12.5 μL or 15 μL (50% V/V) of a detection reagent cocktail followed by a one hour incubation time at room temperature. Microplates were read following signal generation with a PerkinElmer Envision™ (PerkinElmer Inc., Waltham, Mass.) for chemiluminescent signal detection. Reactivity was analyzed using the CBIS data analysis suite (ChemInnovation, CA) where RLU refers to the raw measured values. The percent inhibition was calculated using the formula: % Inhibition=100%*(1−mean RLU of test sample−mean RLU of control)/(mean RLU of EC80 control−mean RLU of vehicle control).
The percent inhibition is depicted. As used herein, strong activity against a receptor is considered a percent activity of about 60% or higher. Higher results for antagonism against the H2 receptor are considered better.

Assay [2] deals with T1, H2 receptor. Put plainly: IC50 antagonist activity screen (PathHunter β-Arrestin GPCR assay). It is filed as cell-based. The note with it: for Emax / Maximum inhibition (%): maximum inhibition (antagonism) from IC50 curves, about 60% or higher = strong activity; for Emax: read-out: IC50 (Inhibition - Max Response).
Source text: It has additionally been discovered that the alkyl side chain length of cannabinoid compounds can influence the effect the cannabinoid compounds have on the GPCR receptors. For example, it has been discovered that increasing the length of the alkyl side chain, generally increases the antagonism of CBG and CBD to the H2 receptor. […] The RC50 value indicates the value at which the cannabinoid reached the reference compound's 50% effective concentration.
as §1
Based on the results of the GPCR reactivity screen, and IC50 antagonist activity screen was run against the H2 receptor. The IC50 antagonist activity screen was run for each of CBG, CBC, CBL, CBN, CBDV, CBD, CBD-C1, CBD-C2, (+)-CBD, CBG-C6, CBG-C7, CBG-C9, CBD-C6, CBD-C7, CBD-C9, CBGA-C6, CBGA-C7, and CBGA-C9. IC50 curves were measured using the same GPCR assay, PathHunter® β-Arrestin from Eurofins DiscoverX Products (Fremont, Calif.), as the GPCR reactivity screen. As used herein, strong activity against a receptor is considered a maximum activity of about 60% or higher. Higher results for antagonism against the H2 receptor are considered better.

[3] abbreviates: value at which the cannabinoid reached the reference compound's (tiotidine) 50% effective concentration, H2 receptor antagonist mode, read-out: RC50 (the source's name).

Like-named read-outs stand apart in the source and are kept apart here.

T1 sequence (P25021 whole entry): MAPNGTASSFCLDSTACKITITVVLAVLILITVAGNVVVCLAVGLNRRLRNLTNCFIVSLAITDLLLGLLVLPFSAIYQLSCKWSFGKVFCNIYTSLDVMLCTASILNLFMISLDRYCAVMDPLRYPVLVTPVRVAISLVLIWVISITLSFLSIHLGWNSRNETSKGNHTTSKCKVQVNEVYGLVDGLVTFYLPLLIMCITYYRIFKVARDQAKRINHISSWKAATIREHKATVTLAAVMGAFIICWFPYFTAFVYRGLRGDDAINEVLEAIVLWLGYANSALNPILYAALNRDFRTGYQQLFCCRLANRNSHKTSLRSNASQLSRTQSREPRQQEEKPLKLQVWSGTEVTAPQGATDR

Regarding `CCCCCc1cc(O)c2c(c1)OC(C)(CCC=C(C)C)C=C2` (stereo not shown) [CBC, cannabichromene], the “H2 Receptor Antagonist Activity (percent inhibition)” value at H2 receptor [1] was determined as 117%. For the same molecule, at H2 receptor [2], the IC50 was 2.63 µM and the Emax turned out to be 62%.
Take `CCCCCc1cc2c(c(O)c1C(=O)O)C=CC(C)(CCC=C(C)C)O2` (stereo not shown) [CBCA, cannabichromenic acid]: at H2 receptor [1], the “H2 Receptor Antagonist Activity (percent inhibition)” value is recorded as 12% and the “H2 antagonist activity in the GPCR reactivity screen (in words)” value (“H2 antagonist activity” below) was “did not demonstrate H2 antagonist activity”.
Consider `C=C(C)[C@@H]1CCC(C)=C[C@H]1c1c(O)cc(CCCCC)cc1O` [CBD, cannabidol], for which the “Maximum inhibition (%)” value at H2 receptor [2] was found to be 64. For the same molecule, the IC50 at H2 receptor [2] (setting [3]) was determined as 0.83 µM.
For `C=C(C)[C@@H]1CCC(C)=C[C@H]1c1c(O)cc(C)cc1O` [CBD-C1, cannabidiorcol], on H2 receptor [1], the “H2 Receptor Antagonist Activity (percent inhibition)” value is 47% and the “H2 antagonist activity” value is on record as “did not demonstrate H2 antagonist activity”. In addition, the “Maximum inhibition (%)” value at H2 receptor [2] was determined as 53. Moreover, the IC50 at H2 receptor [2] (setting [3]) was more than 10 µM.
Take `C=C(C)[C@@H]1CCC(C)=C[C@H]1c1c(O)cc(CC)cc1O` [CBD-C2, cannabidol-C2]: at H2 receptor [2], the “Maximum inhibition (%)” value turned out to be 71. For the same molecule, on H2 receptor [2] (setting [3]), the IC50 is 5.22 µM.
In the same order, the values of `C=C(C)[C@@H]1CCC(C)=C[C@H]1c1c(O)cc(CCCCCC)cc1O` [CBD-C6, cannabidol hexyl] are 80 and 0.46 µM.
As to `C=C(C)[C@@H]1CCC(C)=C[C@H]1c1c(O)cc(CCCCCCC)cc1O` [CBD-C7, cannabidol heptyl], the “Maximum inhibition (%)” value on H2 receptor [2] is reported as 74. The IC50 at H2 receptor [2] (setting [3]) was found to be 0.38 µM.
`C=C(C)[C@@H]1CCC(C)=C[C@H]1c1c(O)cc(CCCCCCCCC)cc1O` [CBD-C9, cannabidol nonyl]: the “Maximum inhibition (%)” value on H2 receptor [2] was found to be 56. In addition, the IC50 on H2 receptor [2] (setting [3]) was 0.1 µM.
Take `C=C(C)[C@@H]1CCC(C)=C[C@H]1c1c(O)cc(CCCCC)c(C(=O)O)c1O` [CBDA, cannabidiolic acid]: at H2 receptor [1], the “H2 Receptor Antagonist Activity (percent inhibition)” value is recorded as 4% and the “H2 antagonist activity” value is on record as “did not demonstrate H2 antagonist activity”.
Turning to `C=C(C)[C@@H]1CCC(C)=C[C@H]1c1c(O)cc(CCC)cc1O` [CBDV, cannabidivarin], on H2 receptor [2], the Emax was determined as 75%. On H2 receptor [2] (setting [3]), the IC50 turned out to be 4.5 µM.
Take `C=C(C)[C@@H]1CCC(C)=C[C@H]1c1c(O)cc(CCC)c(C(=O)O)c1O` [CBDVA, cannabidivarinic acid]: on H2 receptor [1], the “H2 Receptor Antagonist Activity (percent inhibition)” value turned out to be 12% and the “H2 antagonist activity” value is listed as “did not demonstrate H2 antagonist activity”.
With `CCCCCc1cc(O)c(C/C=C(\C)CCC=C(C)C)c(O)c1` [CBG, cannabigerol], the Emax on H2 receptor [2] was 21%. Moreover, the IC50 on H2 receptor [2] (setting [3]) was more than 10 µM.
In the case of `CCCCc1cc(O)c(CC=C(C)CCC=C(C)C)c(O)c1` [CBG-C4, cannabigerol butyl], at H2 receptor [1], the “effect on sensitivity to histamine (in words)” value (“effect on sensitivity” below) is “increasing sensitivity to histamine”, the “H2 Receptor Antagonist Activity (percent inhibition)” value is on record as −62% and the “H2 antagonist activity” value is recorded as “did not demonstrate H2 antagonist activity”.
For the molecule `CCCCCCc1cc(O)c(C/C=C(\C)CCC=C(C)C)c(O)c1` [CBG-C6, cannabigerol hexyl], on H2 receptor [2], the “Maximum inhibition (%)” value is reported as 84. The IC50 at H2 receptor [2] (setting [3]) was more than 10 µM.
In the same order, the values of `CCCCCCCc1cc(O)c(C/C=C(\C)CCC=C(C)C)c(O)c1` [CBG-C7, cannabigerol heptyl] are 93 and 3.39 µM.
For `CCCCCCCCCc1cc(O)c(C/C=C(\C)CCC=C(C)C)c(O)c1` [CBG-C9, cannabigerol nonyl], in that order: 96 and 2.89 µM.
As for `CCCCCc1cc(O)c(C/C=C(\C)CCC=C(C)C)c(O)c1C(=O)O` [CBGA, cannabigerolic acid], on H2 receptor [1], the “effect on sensitivity” value was “increasing sensitivity to histamine”, the “H2 Receptor Antagonist Activity (percent inhibition)” value is recorded as −3% and the “H2 antagonist activity” value is on record as “did not demonstrate H2 antagonist activity”.
Take `CCCCc1cc(O)c(C/C=C(\C)CCC=C(C)C)c(O)c1C(=O)O` [CBGA-C4, cannabigerolic acid butyl]: at H2 receptor [1], the “H2 Receptor Antagonist Activity (percent inhibition)” value was 16% and the “H2 antagonist activity” value was “did not demonstrate H2 antagonist activity”.
With `CCCCCCc1cc(O)c(C/C=C(\C)CCC=C(C)C)c(O)c1C(=O)O` [CBGA-C6, cannabigerolic acid hexyl], the “Maximum inhibition (%)” value on H2 receptor [2] came out at 9. In addition, the IC50 on H2 receptor [2] (setting [3]) was more than 10 µM.
For `CCCCCCCc1cc(O)c(C/C=C(\C)CCC=C(C)C)c(O)c1C(=O)O` [CBGA-C7, cannabigerolic acid heptyl], in that order: 17 and more than 10 µM.
In the same order, the values of `CCCCCCCCCc1cc(O)c(C/C=C(\C)CCC=C(C)C)c(O)c1C(=O)O` [CBGA-C9, cannabigerolic acid nonyl] are 11 and more than 10 µM.
With `CCCc1cc(O)c(C/C=C(\C)CCC=C(C)C)c(O)c1` [CBGV, cannabigerivarin], on H2 receptor [1], the “H2 Receptor Antagonist Activity (percent inhibition)” value is given as 10% and the “H2 antagonist activity” value was “did not demonstrate H2 antagonist activity”.
In the same order, the values of `CCCc1cc(O)c(C/C=C(\C)CCC=C(C)C)c(O)c1C(=O)O` [CBGVA, cannabigerovarinic acid] are 2% and “did not demonstrate H2 antagonist activity”.
For the molecule `CCCCCc1cc(O)c2c(c1)OC1(C)CCC3C1C2C3(C)C` (stereo not shown) [CBL, cannabicyclol], at H2 receptor [2], the IC50 is 1.17 µM and the Emax is 64%.
In the case of `CCCCCc1cc2c(c(O)c1C(=O)O)C1C3C(CCC3(C)O2)C1(C)C` (stereo not shown) [CBLA, cannabicyclolic acid], on H2 receptor [1], the “H2 Receptor Antagonist Activity (percent inhibition)” value came out at 11% and the “H2 antagonist activity” value is “did not demonstrate H2 antagonist activity”.
On to `CCCCCc1cc(O)c2c(c1)OC(C)(C)c1ccc(C)cc1-2` [CBN, cannabinol], for which, on H2 receptor [2], the IC50 is more than 10 µM and the Emax was determined as 12%.
`CCCc1cc(O)c2c(c1)OC(C)(C)[C@@H]1CCC(C)=C[C@@H]21` [THCV, tetrahydrocannabivarin]: at H2 receptor [1], the “effect on sensitivity” value was “increasing sensitivity to histamine”, the “H2 Receptor Antagonist Activity (percent inhibition)” value is −22% and the “H2 antagonist activity” value was “did not demonstrate H2 antagonist activity”.
Turning to (+)-cannabidiol [(+)-CBD], at H2 receptor [1], the “H2 Receptor Antagonist Activity (percent inhibition)” value is 45% and the “H2 antagonist activity” value was “did not demonstrate H2 antagonist activity”. The “Maximum inhibition (%)” value at H2 receptor [2] is recorded as 42. In addition, at H2 receptor [2] (setting [3]), the IC50 was more than 10 µM.
